Test results reported in paper PMC9101188, “Human α-Defensin-6 Neutralizes Clostridioides difficile Toxins TcdA and TcdB by Direct Binding” (International Journal of Molecular Sciences, 2022).

Tests used:
TcdB-DL488 = molecular target: T1, TcdB-DL488 (Clostridioides difficile, UniProt P18177); assay: Aggregation of TcdB-DL488 over time in the absence of cells (fluorescence microscopy); parameters: species or system C. difficile VPI 10463; details: α-def-6 6 µM, TcdB-DL488 30 nM in PBS, 37 °C
T1 construct: The native toxins TcdA and TcdB from C. difficile VPI 10463 were expressed and purified; made in house; host or cells: C. difficile VPI 10463 (inferred from "native toxins")
T1 sequence (P18177 whole entry): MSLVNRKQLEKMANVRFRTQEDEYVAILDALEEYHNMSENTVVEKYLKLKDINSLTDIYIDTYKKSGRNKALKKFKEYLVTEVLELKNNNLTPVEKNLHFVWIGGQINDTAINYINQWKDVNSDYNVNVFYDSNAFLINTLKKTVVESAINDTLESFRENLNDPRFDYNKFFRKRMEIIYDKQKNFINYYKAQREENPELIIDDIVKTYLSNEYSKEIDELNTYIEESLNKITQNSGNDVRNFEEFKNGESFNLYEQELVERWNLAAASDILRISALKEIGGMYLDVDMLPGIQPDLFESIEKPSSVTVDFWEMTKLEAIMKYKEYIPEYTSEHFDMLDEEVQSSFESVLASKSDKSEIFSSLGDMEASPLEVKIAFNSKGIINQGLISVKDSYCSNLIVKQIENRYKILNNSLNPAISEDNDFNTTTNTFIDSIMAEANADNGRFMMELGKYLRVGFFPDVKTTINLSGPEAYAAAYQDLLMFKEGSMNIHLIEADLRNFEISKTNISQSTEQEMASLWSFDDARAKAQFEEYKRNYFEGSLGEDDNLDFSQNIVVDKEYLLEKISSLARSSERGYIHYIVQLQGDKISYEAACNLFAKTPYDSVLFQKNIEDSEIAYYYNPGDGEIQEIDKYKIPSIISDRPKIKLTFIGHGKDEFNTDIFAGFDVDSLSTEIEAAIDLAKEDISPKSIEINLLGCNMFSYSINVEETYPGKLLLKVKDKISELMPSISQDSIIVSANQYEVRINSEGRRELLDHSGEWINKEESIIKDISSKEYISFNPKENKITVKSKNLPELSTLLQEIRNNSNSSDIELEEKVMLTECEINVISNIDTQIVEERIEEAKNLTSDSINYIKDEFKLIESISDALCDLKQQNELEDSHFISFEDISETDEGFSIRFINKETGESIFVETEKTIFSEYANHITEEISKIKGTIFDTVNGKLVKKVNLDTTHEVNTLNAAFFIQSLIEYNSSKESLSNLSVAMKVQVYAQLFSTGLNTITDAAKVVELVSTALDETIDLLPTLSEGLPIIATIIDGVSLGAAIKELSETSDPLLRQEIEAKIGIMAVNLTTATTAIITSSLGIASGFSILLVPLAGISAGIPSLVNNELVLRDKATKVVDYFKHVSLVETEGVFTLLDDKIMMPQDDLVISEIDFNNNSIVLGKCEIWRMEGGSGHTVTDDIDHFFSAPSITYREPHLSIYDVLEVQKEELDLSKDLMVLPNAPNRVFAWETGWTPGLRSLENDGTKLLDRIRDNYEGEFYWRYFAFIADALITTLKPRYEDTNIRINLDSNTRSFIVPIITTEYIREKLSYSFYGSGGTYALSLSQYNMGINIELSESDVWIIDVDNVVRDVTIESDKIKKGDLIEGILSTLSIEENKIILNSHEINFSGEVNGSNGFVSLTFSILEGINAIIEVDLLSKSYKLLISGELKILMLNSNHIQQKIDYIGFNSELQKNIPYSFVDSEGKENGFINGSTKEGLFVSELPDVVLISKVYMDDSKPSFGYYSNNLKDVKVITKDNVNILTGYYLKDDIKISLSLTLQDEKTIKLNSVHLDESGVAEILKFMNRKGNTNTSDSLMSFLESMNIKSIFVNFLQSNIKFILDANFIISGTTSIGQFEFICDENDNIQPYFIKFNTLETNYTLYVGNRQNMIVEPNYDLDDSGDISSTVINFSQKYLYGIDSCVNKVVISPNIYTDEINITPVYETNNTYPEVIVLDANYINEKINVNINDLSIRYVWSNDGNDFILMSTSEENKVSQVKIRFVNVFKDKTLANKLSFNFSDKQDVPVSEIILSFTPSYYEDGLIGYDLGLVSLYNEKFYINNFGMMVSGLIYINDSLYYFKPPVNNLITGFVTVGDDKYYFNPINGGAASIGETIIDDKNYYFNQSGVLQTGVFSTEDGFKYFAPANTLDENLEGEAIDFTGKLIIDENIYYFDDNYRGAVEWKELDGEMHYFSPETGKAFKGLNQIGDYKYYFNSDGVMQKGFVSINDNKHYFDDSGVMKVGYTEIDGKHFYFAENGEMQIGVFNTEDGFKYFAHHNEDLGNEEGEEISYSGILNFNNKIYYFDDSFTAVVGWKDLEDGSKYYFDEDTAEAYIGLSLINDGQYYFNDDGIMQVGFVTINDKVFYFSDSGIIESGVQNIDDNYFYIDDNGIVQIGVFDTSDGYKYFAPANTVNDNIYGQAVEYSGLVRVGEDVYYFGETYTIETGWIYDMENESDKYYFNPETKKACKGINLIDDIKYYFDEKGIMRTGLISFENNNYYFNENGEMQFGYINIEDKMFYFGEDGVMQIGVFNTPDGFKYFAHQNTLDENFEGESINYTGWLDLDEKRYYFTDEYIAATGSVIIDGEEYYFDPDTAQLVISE
Method: (§1) Cells were fixed and permeabilized. […] Scale bars correspond to 50 µm. […] TcdB was detected.
Simultaneously the same volume of PBS was exposed to DyLight^TM 488 NHS-Ester to serve as a negative control in experiments. To remove free fluorescence dye, the samples were rebuffered by passing through Zeba^TM Spin Desalting Columns via centrifugation.
Aggregation was allowed to proceed for 30 min at 37 °C. Images were taken every second for the first 5 min and every 10 s for additional 25 min. Images were processed using ImageJ.

bacteria = details: cited from earlier work
Text: The benchmark for treating CDIs is still the use of some specific antibiotics such as vancomycin, metronidazole or fidaxomicin [20]. More and more attention is also being paid to the direct inactivation of the secreted toxins, for example by using anti-toxin-antibodies such as bezlotoxumab or actoxumab. Following the approach of directly inactivating the secreted toxins and based on previous findings of our group and of others, we investigated the effects of human endogenous antimicrobial peptides on the C. difficile toxins TcdA and TcdB. […] The administration of α-def-6 protected human cells from TcdB, but also from the closely related TcdA and the clinically more relevant combination of both TcdA and TcdB. Exemplarily, the protective effect could be confirmed for TcdB in vivo using the zebrafish embryo ...

CaCo-2 monolayer [1] = type: cell-based, human
CaCo-2 monolayer [2] = type: cell-based, human; remark: listed apart in the source
Vero cells = assay: Aggregation of TcdB-DL488 and cell morphology in Vero cells; type: cell-based, African green monkey; details: TcdB-DL488 22 nM + α-def-6 6 µM, 0.5 h, 37 °C (n = 2)
Method: as §1
Cells were grown in their respective media under humidified conditions at 37 °C and 5% CO2. Vero cells (African green monkey kidney cells; DSMZ, Braunschweig, Germany) were maintained in Gibco minimum essential medium (MEM; Thermo Fisher Scientific, Waltham, MA, USA) supplemented with 10% fetal calf serum (FCS; Thermo Fisher Scientific, Waltham, MA, USA), 1 mM sodium pyruvate (Thermo Fisher Scientific, Waltham, MA, USA), 2 mM L-glutamine (PAN-Biotech, Aidenbach, Germany), 0.1 mM non-essential amino acids (Thermo Fisher Scientific, Waltham, MA, USA) and 100 U/mL penicillin and 100 µg/mL streptomycin (both Thermo Fisher Scientific, Waltham, MA, USA). CaCo-2 cells (human epithelial colorectal adenocarcinoma cells, HTB-37; ATCC, Manassas, VA, USA) were cultured in Gibco Dulbecco’s Modified Eagle Medium (DMEM; Thermo Fisher Scientific, Waltham, MA, USA) plus 10% FCS, 1 mM sodium pyruvate, 0.1 mM non-essential amino acids and 100 U/mL penicillin and 100 µg/mL streptomycin.
Simultaneously the same volume of PBS was exposed to DyLight^TM 488 NHS-Ester to serve as a negative control in experiments. To remove free fluorescence dye, the samples were rebuffered by passing through Zeba^TM Spin Desalting Columns via centrifugation. […]

Rac1 = type: cell-based, African green monkey

CC[C@H](C)[C@@H]1NC(=O)CNC(=O)[C@H](CCSC)NC(=O)[C@H](C(C)C)NC(=O)[C@H]([C@@H](C)O)NC(=O)[C@@H]2CSSC[C@@H]3NC(=O)[C@H](Cc4c[nH]cn4)NC(=O)[C@@H](NC(=O)[C@@H](NC(=O)[C@H](Cc4ccccc4)NC(=O)[C@H](C)N)[C@@H](C)O)CSSC[C@@H](C(=O)N[C@@H](CC(C)C)C(=O)O)NC(=O)[C@H](CSSC[C@H](NC(=O)[C@H](CO)NC(=O)[C@H](CCCNC(=N)N)NC(=O)[C@H](CCCNC(=N)N)NC3=O)C(=O)N[C@@H](Cc3ccc(O)cc3)C(=O)N[C@@H](CO)C(=O)N[C@@H]([C@@H](C)O)C(=O)N[C@@H](CCC(=O)O)C(=O)N[C@@H](Cc3ccc(O)cc3)C(=O)N[C@@H](CO)C(=O)N[C@@H](Cc3ccc(O)cc3)C(=O)NCC(=O)N[C@@H]([C@@H](C)O)C(=O)N2)NC(=O)[C@H](Cc2ccccc2)NC(=O)[C@H](CCCNC(=N)N)NC(=O)[C@H](Cc2c[nH]cn2)NC(=O)[C@H](CC(N)=O)NC1=O [α-def-6]
time of formation of toxin-defensin aggregates (TcdB-DL488): within a few seconds to minutes
formation of toxin-defensin complexes (TcdB-DL488; 0.5 h, no cells (n ≥ 2)): very fast and distinct formation of large toxin-defensin complexes
microbiocidal activity (bacteria; ref [27]): negligible microbiocidal activity
biocidal / antimicrobial activity (bacteria; ref [46]): surprisingly low antimicrobial activity
TEER, TcdA + TcdB (CaCo-2 monolayer [1]): clear delay in TEER-reduction
TEER, TcdA (CaCo-2 monolayer [2]): clear delay in TEER-reduction
morphological changes of TcdB-DL488-treated cells (Vero cells): no morphological changes
toxin-defensin aggregates in the presence of cells (Vero cells): toxin-defensins-aggregates were also visible
glucosylation of Rac1 in intact cells (Rac1): less Rac1 was glucosylated
